From paper PMC11111408, “Concurrent inhibition of oncogenic and wild-type RAS-GTP for cancer therapy” (Nature, 2024)
“And” between values parts separate entries of the source, which are not always exact repeats. Equal entries are not always repeated.

Tests used:
Test in all cases: Cellular BRET between CYPA and small GTPases (RIT1, MRAS, RRAS, RRAS2, Rheb)
[1] = target: T1, MRAS and other RAS family small GTPase proteins (Homo sapiens, UniProt P10301, G38V); assay type: cell-based; settings: RRAS G38V, single replicates
T1 construct: expressed in transfected cells; host or cells: U2OS PPIA-KO
T1 sequence (P10301 1-218 G38V): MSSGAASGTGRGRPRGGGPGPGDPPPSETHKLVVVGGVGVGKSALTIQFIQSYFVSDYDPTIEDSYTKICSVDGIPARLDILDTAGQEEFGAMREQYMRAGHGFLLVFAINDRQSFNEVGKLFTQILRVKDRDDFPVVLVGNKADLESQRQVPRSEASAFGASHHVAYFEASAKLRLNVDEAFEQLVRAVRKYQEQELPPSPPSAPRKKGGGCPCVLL

[2] = target: T2, MRAS and other RAS family small GTPase proteins (Homo sapiens, UniProt Q92963); assay type: cell-based; settings: RIT1, single replicates
T2 construct: expressed in transfected cells; host or cells: U2OS PPIA-KO

[3] = tested on: MRAS and other RAS family small GTPase proteins; assay type: cell-based, human; settings: cellular BRET with CYPA
[4] = target: T3, MRAS and other RAS family small GTPase proteins (Homo sapiens, UniProt O14807, Q71R); assay type: cell-based; settings: MRAS Q71R, single replicates
T3 construct: expressed in transfected cells; host or cells: U2OS PPIA-KO
T3 sequence (O14807 1-208 Q71R): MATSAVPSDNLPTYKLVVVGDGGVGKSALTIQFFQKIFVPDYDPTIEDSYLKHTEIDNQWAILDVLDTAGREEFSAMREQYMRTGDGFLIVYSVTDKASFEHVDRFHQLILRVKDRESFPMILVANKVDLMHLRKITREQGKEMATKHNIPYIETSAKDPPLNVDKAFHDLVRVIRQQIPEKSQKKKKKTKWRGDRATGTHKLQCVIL

[5] = target: T4, MRAS and other RAS family small GTPase proteins (Homo sapiens, UniProt P62070, G23V); assay type: cell-based; settings: RRAS2 G23V, single replicates
T4 construct: expressed in transfected cells; host or cells: U2OS PPIA-KO
T4 sequence (P62070 1-204 G23V): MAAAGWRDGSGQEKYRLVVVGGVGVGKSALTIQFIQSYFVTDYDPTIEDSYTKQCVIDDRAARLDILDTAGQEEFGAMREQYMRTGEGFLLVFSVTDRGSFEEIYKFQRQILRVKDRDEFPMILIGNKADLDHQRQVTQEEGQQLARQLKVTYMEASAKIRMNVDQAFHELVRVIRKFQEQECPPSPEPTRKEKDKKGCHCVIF

[6] = target: T5, MRAS and other RAS family small GTPase proteins (Homo sapiens, UniProt Q15382); assay type: cell-based; settings: RHEB, single replicates
T5 construct: expressed in transfected cells; host or cells: U2OS PPIA-KO
T5 sequence (Q15382 whole entry): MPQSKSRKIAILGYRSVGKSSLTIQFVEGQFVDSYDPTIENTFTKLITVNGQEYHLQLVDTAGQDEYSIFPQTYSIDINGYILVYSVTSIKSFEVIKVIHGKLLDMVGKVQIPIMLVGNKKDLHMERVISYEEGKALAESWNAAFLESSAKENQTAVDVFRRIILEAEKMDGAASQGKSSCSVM

T2 sequence (Q92963 whole entry): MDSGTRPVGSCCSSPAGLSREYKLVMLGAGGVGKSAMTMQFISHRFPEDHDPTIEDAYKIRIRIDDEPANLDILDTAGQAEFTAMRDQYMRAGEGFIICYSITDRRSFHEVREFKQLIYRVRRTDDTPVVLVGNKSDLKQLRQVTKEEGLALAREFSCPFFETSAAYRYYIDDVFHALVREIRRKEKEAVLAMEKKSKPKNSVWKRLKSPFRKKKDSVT

## CCn1c(-c2cc(N3CCN(C4CC4)CC3)cnc2[C@H](C)OC)c2c3cc(ccc31)-c1csc(n1)C[C@H](NC(=O)[C@H]1[C@@H]3COC[C@@H]31)C(=O)N1CCC[C@H](N1)C(=O)OCC(C)(C)C2 [RMC-7977]
[1]; RMC-7977 370.370 nM
  Cellular milliBRET signal between CYPA and small GTPase protein: 10.4854 milliBRET and 10.0017 milliBRET and 10.9416 milliBRET and 10.5658 milliBRET and 8.5015 milliBRET and 8.57 milliBRET
[1]; RMC-7977 1111.111 nM
  Cellular milliBRET signal between CYPA and small GTPase protein: 11.032 milliBRET and 12.1599 milliBRET and 11.6879 milliBRET and 11.9893 milliBRET and 10.1243 milliBRET and 10.2861 milliBRET
[2]; RMC-7977 1.524 nM
  Cellular milliBRET signal between CYPA and small GTPase protein: -0.09879 milliBRET and 0.3095 milliBRET and 0.2348 milliBRET and 0.5374 milliBRET and 0.06248 milliBRET and 1.089 milliBRET
[2]; RMC-7977 4.572 nM
  Cellular milliBRET signal between CYPA and small GTPase protein: 1.317 milliBRET and 0.9916 milliBRET and 1.087 milliBRET and 0.9533 milliBRET and 1.62 milliBRET and 0.6301 milliBRET
[2]; RMC-7977 13.717 nM
  Cellular milliBRET signal between CYPA and small GTPase protein: 2.2977 milliBRET and 1.206 milliBRET and 2.0899 milliBRET and 1.6222 milliBRET and 2.532 milliBRET and 1.262 milliBRET
[2]; RMC-7977 41.152 nM
  Cellular milliBRET signal between CYPA and small GTPase protein: 3.198 milliBRET and 4.946 milliBRET and 3.114 milliBRET and 5.017 milliBRET and 3.557 milliBRET and 4.376 milliBRET
[2]; RMC-7977 123.457 nM
  Cellular milliBRET signal between CYPA and small GTPase protein: 3.95 milliBRET and 6.444 milliBRET and 3.939 milliBRET and 6.521 milliBRET and 4.166 milliBRET and 6.383 milliBRET
[2]; RMC-7977 370.370 nM
  Cellular milliBRET signal between CYPA and small GTPase protein: 5.287 milliBRET and 9.701 milliBRET and 5.757 milliBRET and 9.124 milliBRET and 5.435 milliBRET and 8.897 milliBRET
[2]; RMC-7977 1111.111 nM
  Cellular milliBRET signal between CYPA and small GTPase protein: 5.773 milliBRET and 8.825 milliBRET and 5.603 milliBRET and 8.649 milliBRET and 4.274 milliBRET and 8.593 milliBRET
[3]
  tri-complex formation potency for KRAS versus MRAS and other RAS family small GTPases: more than tenfold more potent
[4]; RMC-7977 1.524 nM
  Cellular milliBRET signal between CYPA and small GTPase protein: 0.1742 milliBRET and -0.02549 milliBRET and -0.02476 milliBRET and 0.1125 milliBRET and -0.009573 milliBRET and 0.6001 milliBRET
[4]; RMC-7977 4.572 nM
  Cellular milliBRET signal between CYPA and small GTPase protein: 0.2187 milliBRET and 0.4442 milliBRET and 0.7681 milliBRET and 0.6759 milliBRET and 0.0576 milliBRET and 0.4387 milliBRET
[4]; RMC-7977 13.717 nM
  Cellular milliBRET signal between CYPA and small GTPase protein: 1.192 milliBRET and 1.33 milliBRET and 1.81 milliBRET and 1.499 milliBRET and 1.997 milliBRET and 1.461 milliBRET
[4]; RMC-7977 41.152 nM
  Cellular milliBRET signal between CYPA and small GTPase protein: 3.258 milliBRET and 4.102 milliBRET and 3.883 milliBRET and 4.836 milliBRET and 4.487 milliBRET and 5.493 milliBRET
[4]; RMC-7977 123.457 nM
  Cellular milliBRET signal between CYPA and small GTPase protein: 7.175 milliBRET and 7.5859 milliBRET and 7.924 milliBRET and 8.745 milliBRET and 8.3065 milliBRET and 8.689 milliBRET
[4]; RMC-7977 370.370 nM
  Cellular milliBRET signal between CYPA and small GTPase protein: 10.161 milliBRET and 10.397 milliBRET and 10.5343 milliBRET and 10.3086 milliBRET and 10.5443 milliBRET and 10.7709 milliBRET
[4]; RMC-7977 1111.111 nM
  Cellular milliBRET signal between CYPA and small GTPase protein: 10.7121 milliBRET and 10.5516 milliBRET and 12.3365 milliBRET and 10.0544 milliBRET and 11.7366 milliBRET and 10.787 milliBRET
[5]; RMC-7977 1.524 nM
  Cellular milliBRET signal between CYPA and small GTPase protein: -0.2719 milliBRET and -0.4231 milliBRET and 0.2605 milliBRET and -0.1984 milliBRET and 0.524 milliBRET and 0.04711 milliBRET
[5]; RMC-7977 4.572 nM
  Cellular milliBRET signal between CYPA and small GTPase protein: -0.5269 milliBRET and -0.1093 milliBRET and -0.06611 milliBRET and -0.1023 milliBRET and 0.1899 milliBRET and 0.4007 milliBRET
[5]; RMC-7977 13.717 nM
  Cellular milliBRET signal between CYPA and small GTPase protein: 0.6404 milliBRET and 0.07312 milliBRET and 0.4941 milliBRET and 0.7558 milliBRET and 0.6549 milliBRET and 1.032 milliBRET
[5]; RMC-7977 41.152 nM
  Cellular milliBRET signal between CYPA and small GTPase protein: 0.4251 milliBRET and 1.3441 milliBRET and 1.494 milliBRET and 1.804 milliBRET and 1.776 milliBRET and 2.155 milliBRET
[5]; RMC-7977 123.457 nM
  Cellular milliBRET signal between CYPA and small GTPase protein: 1.79 milliBRET and 2.3918 milliBRET and 3.205 milliBRET and 3.2803 milliBRET and 3.617 milliBRET and 3.886 milliBRET
[5]; RMC-7977 370.370 nM
  Cellular milliBRET signal between CYPA and small GTPase protein: 4.62 milliBRET and 5.516 milliBRET and 5.967 milliBRET and 6.807 milliBRET and 6.877 milliBRET and 7.887 milliBRET
[5]; RMC-7977 1111.111 nM
  Cellular milliBRET signal between CYPA and small GTPase protein: 5.956 milliBRET and 7.6238 milliBRET and 6.926 milliBRET and 8.351 milliBRET and 7.549 milliBRET and 9.519 milliBRET
[6]; RMC-7977 1.524 nM
  Cellular milliBRET signal between CYPA and small GTPase protein: -0.45 milliBRET and -0.2239 milliBRET and 0.1289 milliBRET and 0.6887 milliBRET and -0.5364 milliBRET and -0.5485 milliBRET
[6]; RMC-7977 4.572 nM
  Cellular milliBRET signal between CYPA and small GTPase protein: 0.6966 milliBRET and 0.368 milliBRET and 0.4716 milliBRET and -0.2095 milliBRET and 0.8367 milliBRET and -0.3539 milliBRET
[6]; RMC-7977 13.717 nM
  Cellular milliBRET signal between CYPA and small GTPase protein: 1.377 milliBRET and 0.5452 milliBRET and 0.5599 milliBRET and 0.1038 milliBRET and 0.7915 milliBRET and 0.2385 milliBRET
[6]; RMC-7977 41.152 nM
  Cellular milliBRET signal between CYPA and small GTPase protein: 0.3762 milliBRET and 0.1445 milliBRET and -0.08351 milliBRET and -0.3538 milliBRET and 0.07098 milliBRET and 0.09785 milliBRET
[6]; RMC-7977 123.457 nM
  Cellular milliBRET signal between CYPA and small GTPase protein: 1.173 milliBRET and 0.0474 milliBRET and 0.6247 milliBRET and 0.06196 milliBRET and -0.03233 milliBRET and -0.4308 milliBRET
[6]; RMC-7977 370.370 nM
  Cellular milliBRET signal between CYPA and small GTPase protein: 0.02833 milliBRET and 1.208 milliBRET and -0.3412 milliBRET and 1.195 milliBRET and -0.2334 milliBRET and 1.355 milliBRET
[6]; RMC-7977 1111.111 nM
  Cellular milliBRET signal between CYPA and small GTPase protein: 0.8505 milliBRET and -0.1562 milliBRET and 0.9686 milliBRET and -0.197 milliBRET and 0.47 milliBRET and 0.6063 milliBRET
